Where two headings read alike, the source gives them in different places.

The target in one assay is T1, K-Ras G12S (Homo sapiens, UniProt P01116, G12S).
T1 construct: made in house; host or cells: E. coli (e.g., BL21 (DE3))
Description: HTRF assay of the K-Ras / SOS1 interaction. It is filed as biochemical. The conditions noted are these: IC50 (against K-Ras G12D) to IC50 (against K-Ras G12S). The method in brief: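 GST-K-Ras G12S with anti-GST-Eu donor and His-hSOS1 with anti-6His-XL665 acceptor in ~5 mM HEPES pH 7.4, ~150 mM NaCl, 1 mM DTT, 0.05% BSA, 0.0025% Igepal. Read after ~10 min or longer; IC50 from 665/620 nm ratio, duplicates at 10 µM down to 0.01 µM.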
(Time-resolved FRET reads energy transfer from a long-lived donor to a nearby acceptor.)

A further assay has as its system GP2D cells. Put plainly: Cell proliferation assay (CellTiter-Glo), K-Ras G12D cells. It is filed as cell-based. The conditions noted are these: read-out: Inhibition of GP2D Cells (IC50). The protocol:
ASPC-1 (ATCC CRL-1682), Panc-10.05 (ATCC CRL-2547), A427, and GP2D (Sigma 95090714) cell lines comprise a G12D mutation and can be used to assess Ras cellular signaling in vitro, e.g., in response to the compounds herein. […] ASPC-1 culture medium is prepared with RPMI-1640 and 10% heat-inactivated FBS. Panc-10.05 culture medium is prepared with RPMI-1640, 10 Units/ml human recombinant insulin, and 10% FBS. A427 cell culture is prepared with RPMI-1640 and 10% heat-inactivated FBS. GP2D culture medium is prepared with DMEM with 2mM glutamine and 10% heat-inactivated FBS. A Cell Titer-Glo (CTG) luminescent based assay (Promega) is used to assess growth of the cells, as a measurement of the ability of the compounds herein to inhibit Ras signaling in the cells. The cells (e.g., 800 per well) are seeded in their respective culture medium in standard tissue culture-treated 384-well format plates (Falcon #08-772-116) or ultra-low attachment surface 384-well format plates (S-Bio # MS-9384UZ ). The day after plating, cells are treated with a dilution series (e.g., a 9 point 3-fold dilution series) of the compounds herein (e.g., approximately 40 µl final volume per well). Cell viability can be monitored (e.g., approximately 5 days later) according to the manufacturer's recommended instructions, where the CellTiter-Glo reagent is added (e.g., approximately 10 µl), vigorously mixed, covered, and placed on a plate shaker (e.g., approximately for 20 min) to ensure sufficient cell lysis prior to assessment of luminescent signal. The IC50 values are determined using the four parameter fit. The resulting IC50 value is a measurement of the ability of the compounds herein to reduce cell growth of Ras-driven cells (e.g., tumor cell lines) in vitro and/or in vivo.

As to `Nc1nc2c(-c3c(Cl)cc4c(NC5CC6(C5)CN(C(=O)n5cncn5)C6)nc(OC[C@@]56CCCN5C[C@H](F)C6)nc4c3F)ccc(F)c2s1` [Compound A211, (6-((7-(2-amino-7-fluorobenzo[d]thiazol-4-yl)-6-chloro-8-fluoro-2-(((2R,7aS)-2-fluorotetrahydro-1H-pyrrolizin-7a(5H)-yl)methoxy)quinazolin-4-yl)amino)-2-azaspiro[3.3]heptan-2-yl)(1H-1,2,4-triazol-1-yl)methanone], at K-Ras G12S, the “Ratio of IC50 KRAS G12D vs. IC50 KRAS G12S” value (shortened to “Ratio”) is “A (A: indicates that the ratio of IC50 against KrasG12D vs. IC50 against KrasG12S is 1-fold or greater)”. The IC50 (usually the concentration needed to halve the response being measured) with GP2D cells (GP2D cells (K-Ras G12D)) was in the range of 1000 to 10000 nM.

Regarding `Nc1nc2c(-c3c(Cl)cc4c(N[C@@H]5C[C@H]6CC[C@@H](C5)N6C(=O)n5cncn5)nc(OC[C@@]56CCCN5C[C@H](F)C6)nc4c3F)ccc(F)c2s1` [Compound A286, ((1R,3s,5S)-3-((7-(2-amino-7-fluorobenzo[d]thiazol-4-yl)-6-chloro-8-fluoro-2-(((2R,7aS)-2-fluorotetrahydro-1H-pyrrolizin-7a(5H)-yl)methoxy)quinazolin-4-yl)amino)-8-azabicyclo[3.2.1]octan-8-yl)(1H-1,2,4-triazol-1-yl)methanone], the “Ratio” value on K-Ras G12S is given as “A (A: indicates that the ratio of IC50 against KrasG12D vs. IC50 against KrasG12S is 1-fold or greater)”. For the same compound, in the assay on GP2D cells (GP2d), the IC50 lay within 1000 to 10000 nM.

As to `N#Cc1ccn(C(=O)N2C3CCC2CN(c2nc(OC[C@@]45CCCN4C[C@H](F)C5)nc4c(F)c(-c5ccc(F)c6sc(N)nc56)c(Cl)cc24)C3)c1` [Compound A188, 1-(3-(7-(2-amino-7-fluorobenzo[d]thiazol-4-yl)-6-chloro-8-fluoro-2-(((2R,7aS)-2-fluorotetrahydro-1H-pyrrolizin-7a(5H)-yl)methoxy)quinazolin-4-yl)-3,8-diazabicyclo[3.2. 1]octane-8-carbonyl)-1H-pyrrole-3-carbonitrile], the “Ratio” value at K-Ras G12S is given as “A (A: indicates that the ratio of IC50 against KrasG12D vs. IC50 against KrasG12S is 1-fold or greater)”. Also, the IC50 in the assay with GP2D cells (GP2d) is not above 1000 nM.

In the case of `N#Cc1c(N)sc2c(F)ccc(-c3ncc4c(N5CC6CCC(C5)N6C(=O)n5cncn5)nc(OC[C@@]56CCCN5C[C@H](F)C6)nc4c3F)c12` [Compound A206, 4-(4-(8-(1H-1,2,4-triazole-1-carbonyl)-3,8-diazabicyclo[3.2.1]octan-3-yl)-8-fluoro-2-(((2R,7aS)-2-fluorotetrahydro-1H-pyrrolizin-7a(5H)-yl)methoxy)pyrido[4,3-d]pyrimidin-7-yl)-2-amino-7-fluorobenzo[b]thiophene-3-carbonitrile], the “Ratio” value on K-Ras G12S is listed as “A (A: indicates that the ratio of IC50 against KrasG12D vs. IC50 against KrasG12S is 1-fold or greater)”. In addition, the IC50 in the assay on GP2D cells (GP2D cells (K-Ras G12D)) is not above 1000 nM.

Take `Nc1nc2c(-c3c(Cl)cc4c(NCCN5CC6CCC(C5)N6C(=O)n5cncn5)nc(OC[C@@]56CCCN5C[C@H](F)C6)nc4c3F)ccc(F)c2s1` [Compound A168, (3-(2-((7-(2-amino-7-fluorobenzo[d]thiazol-4-yl)-6-chloro-8-fluoro-2-(((2R,7aS)-2-fluorotetrahydro-1H-pyrrolizin-7a(5H)-yl)methoxy)quinazolin-4-yl)amino)ethyl)-3,8-diazabicyclo[3.2.1]octan-8-yl)(1H-1,2,4-triazol-1-yl)methanone]: the “Ratio” value at K-Ras G12S is “A (A: indicates that the ratio of IC50 against KrasG12D vs. IC50 against KrasG12S is 1-fold or greater)”. Also, the IC50 in the assay on GP2D cells (GP2d) was in the range of 1000 to 10000 nM.

Take `Nc1nc2c(-c3c(Cl)cc4c(N5CCC56CCN(C(=O)n5cncn5)CC6)nc(OC[C@@]56CCCN5C[C@H](F)C6)nc4c3F)ccc(F)c2s1` [Compound A288, (1-(7-(2-amino-7-fluorobenzo[d]thiazol-4-yl)-6-chloro-8-fluoro-2-(((2R,7aS)-2-fluorotetrahydro-1H-pyrrolizin-7a(5H)-yl)methoxy)quinazolin-4-yl)-1,7-diazaspiro[3.5]nonan-7-yl)(1H-1,2,4-triazol-1-yl)methanone]: at K-Ras G12S, the “Ratio” value is listed as “A (A: indicates that the ratio of IC50 against KrasG12D vs. IC50 against KrasG12S is 1-fold or greater)”. Also, the IC50 in the assay on GP2D cells (GP2D cells (K-Ras G12D)) fell in the range of 1000 to 10000 nM.

As to “2-amino-4-(6-chloro-8-fluoro-2-(((2R,7aS)-2-fluorotetrahydro-1H-pyrrolizin-7 a(5H)-yl)methoxy)-4-(8-(4-methyl-1H-1,2,3-triazole-1-carbonyl)-3,8-diazabicyclo[3.2.1]octan-3-yl)quinazolin-7-yl)-7-fluorobenzo[b]thiophene-3-carbonitrile [Compound A189]”, on K-Ras G12S, the “Ratio” value is listed as “A (A: indicates that the ratio of IC50 against KrasG12D vs. IC50 against KrasG12S is 1-fold or greater)”. Also, the IC50 in the assay with GP2D cells (GP2D cells (K-Ras G12D)) was not above 1000 nM.

Take `N#Cc1cnn(C(=O)N2CC3CCC(C2)N3c2nc(OC[C@@]34CCCN3C[C@H](F)C4)nc3c(F)c(-c4ccc(F)c5sc(N)nc45)c(Cl)cc23)c1` [Compound A112, 1-(8-(7-(2-amino-7-fluorobenzo[d]thiazol-4-yl)-6-chloro-8-fluoro-2-(((2R,7aS)-2-fluorotetrahydro-1H-pyrrolizin-7a(5H)-yl)methoxy)quinazolin-4-yl)-3,8-diazabicyclo[3.2. 1]octane-3-carbonyl)-1H-pyrazole-4-carbonitrile]: the “Ratio” value at K-Ras G12S was “A (A: indicates that the ratio of IC50 against KrasG12D vs. IC50 against KrasG12S is 1-fold or greater)”. Moreover, the half-maximal inhibitory concentration (IC50) in the assay with GP2D cells (GP2d) was not above 1000 nM.

Take `C#Cc1c(F)ccc2cc(O)cc(-c3ncc4c(N5C6COCC5CN(C(=O)n5cc(C#N)cn5)C6)nc(OC[C@@]56CCCN5C[C@H](F)C6)nc4c3F)c12` [Compound A226, 1-(9-(7-(8-ethynyl-7-fluoro-3-hydroxynaphthalen-1-yl)-8-fluoro-2-(((2R,7aS)-2-fluorotetrahydro-1H-pyrrolizin-7a(5H)-yl)methoxy)pyrido[4,3-d]pyrimidin-4-yl)-3-oxa-7,9-diazabicyclo[3.3.1]nonane-7-carbonyl)-1H-pyrazole-4-carbonitrile]: on K-Ras G12S, the “Ratio” value is reported as “A (A: indicates that the ratio of IC50 against KrasG12D vs. IC50 against KrasG12S is 1-fold or greater)”. Further, the IC50 with GP2D cells (GP2D cells (K-Ras G12D)) fell in the range of 1000 to 10000 nM.

In the case of `N#Cc1cnn(C(=O)N2CC3COCC(C2)N3c2nc(OC[C@@]34CCCN3C[C@H](F)C4)nc3c(F)c(-c4ccc(F)c5sc(N)c(C#N)c45)c(Cl)cc23)c1` [Compound A249, 1-(9-(7-(2-amino-3-cyano-7-fluorobenzo[b]thiophen-4-yl)-6-chloro-8-fluoro-2-(((2R,7aS)-2-fluorotetrahydro-1H-pyrrolizin-7a(5H)-yl)methoxy)quinazolin-4-yl)-3-oxa-7,9-diazabicyclo[3.3.1]nonane-7-carbonyl)-1H-pyrazole-4-carbonitrile], the “Ratio” value on K-Ras G12S is reported as “A (A: indicates that the ratio of IC50 against KrasG12D vs. IC50 against KrasG12S is 1-fold or greater)”. Further, the half-inhibitory concentration (IC50) with GP2D cells (GP2D cells (K-Ras G12D)) was not above 1000 nM.

For `Nc1nc2c(-c3c(Cl)cc4c(N5CCC6(CCN(C(=O)n7cncn7)CC6)CC5)nc(OC[C@@]56CCCN5C[C@H](F)C6)nc4c3F)ccc(F)c2s1` [Compound A250, (9-(7-(2-amino-7-fluorobenzo[d]thiazol-4-yl)-6-chloro-8-fluoro-2-(((2R,7aS)-2-fluorotetrahydro-1H-pyrrolizin-7a(5H)-yl)methoxy)quinazolin-4-yl)-3,9-diazaspiro[5.5]undecan-3-yl)(1H-1,2,4-triazol-1-yl)methanone], the “Ratio” value at K-Ras G12S is recorded as “A (A: indicates that the ratio of IC50 against KrasG12D vs. IC50 against KrasG12S is 1-fold or greater)”. Further, the IC50 in the assay with GP2D cells (GP2D cells (K-Ras G12D)) lay within 1000 to 10000 nM.

As to `Nc1nc2c(-c3c(Cl)cc4c(N5CCCC56CCCN(C(=O)n5cncn5)C6)nc(OC[C@@]56CCCN5C[C@H](F)C6)nc4c3F)ccc(F)c2s1` (stereo partly drawn) [Compound A144, (1-(7-(2-amino-7-fluorobenzo[d]thiazol-4-yl)-6-chloro-8-fluoro-2-(((2R,7aS)-2-fluorotetrahydro-1H-pyrrolizin-7a(5H)-yl)methoxy)quinazolin-4-yl)-1,7-diazaspiro[4.5]decan-7-yl)(1H-1,2,4-triazol-1-yl)methanone], the “Ratio” value on K-Ras G12S was “A (A: indicates that the ratio of IC50 against KrasG12D vs. IC50 against KrasG12S is 1-fold or greater)”. The IC50 with GP2D cells (GP2D cells (K-Ras G12D)) lay in the range of 1000 to 10000 nM.

(Values after patent EP4389751A1, “HETEROCYCLIC COMPOUNDS AND USES THEREOF” (Kumquat Biosciences Inc., priority 2021, dated 2024).)
